Reference: ChEMBL document CHEMBL5291721, “A preclinical secondary pharmacology resource illuminates target-adverse drug reaction associations of marketed drugs” (Nat Commun, 2023)

Legend:
[1] = target: T1, Progesterone receptor (Homo sapiens, UniProt P06401); assay type: functional
T1 sequence (P06401 whole entry): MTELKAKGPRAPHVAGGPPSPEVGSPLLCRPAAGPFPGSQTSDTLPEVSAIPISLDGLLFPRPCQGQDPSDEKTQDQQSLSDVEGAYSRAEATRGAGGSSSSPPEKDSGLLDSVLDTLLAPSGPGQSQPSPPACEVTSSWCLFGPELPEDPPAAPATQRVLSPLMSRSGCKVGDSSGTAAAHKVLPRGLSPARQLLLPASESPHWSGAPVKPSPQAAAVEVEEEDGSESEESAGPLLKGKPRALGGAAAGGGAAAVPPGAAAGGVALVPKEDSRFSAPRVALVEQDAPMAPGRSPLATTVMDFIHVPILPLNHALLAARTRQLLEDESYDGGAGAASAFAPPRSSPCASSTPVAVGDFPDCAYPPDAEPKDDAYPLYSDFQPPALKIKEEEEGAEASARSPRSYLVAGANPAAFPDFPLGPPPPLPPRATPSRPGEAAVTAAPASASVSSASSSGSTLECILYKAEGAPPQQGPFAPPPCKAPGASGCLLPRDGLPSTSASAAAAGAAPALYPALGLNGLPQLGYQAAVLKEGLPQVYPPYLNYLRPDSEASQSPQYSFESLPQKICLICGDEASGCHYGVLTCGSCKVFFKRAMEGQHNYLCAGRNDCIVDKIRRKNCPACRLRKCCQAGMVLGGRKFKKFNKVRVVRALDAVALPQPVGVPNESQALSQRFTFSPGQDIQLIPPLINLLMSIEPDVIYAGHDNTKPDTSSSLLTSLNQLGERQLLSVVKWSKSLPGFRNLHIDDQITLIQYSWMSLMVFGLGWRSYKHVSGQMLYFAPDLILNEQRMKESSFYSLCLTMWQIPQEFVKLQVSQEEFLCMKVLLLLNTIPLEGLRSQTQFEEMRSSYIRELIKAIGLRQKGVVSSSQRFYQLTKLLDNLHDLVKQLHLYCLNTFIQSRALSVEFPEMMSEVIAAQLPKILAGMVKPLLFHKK

[2] = target: Melanocortin receptor 3 (Homo sapiens, UniProt P41968)
Sequence of Melanocortin receptor 3 (P41968 whole entry): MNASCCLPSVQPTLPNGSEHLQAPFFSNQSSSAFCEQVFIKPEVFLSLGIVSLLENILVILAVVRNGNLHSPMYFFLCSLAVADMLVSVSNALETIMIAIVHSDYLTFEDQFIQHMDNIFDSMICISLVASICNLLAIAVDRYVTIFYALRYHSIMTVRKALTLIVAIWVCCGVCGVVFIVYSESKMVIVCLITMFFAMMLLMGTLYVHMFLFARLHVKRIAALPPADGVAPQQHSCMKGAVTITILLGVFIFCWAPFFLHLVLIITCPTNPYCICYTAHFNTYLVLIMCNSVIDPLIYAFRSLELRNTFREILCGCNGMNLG

[3] = target: 5-hydroxytryptamine receptor 2A (Homo sapiens, UniProt P28223); assay type: functional, cell-based
Sequence of 5-hydroxytryptamine receptor 2A (P28223 whole entry): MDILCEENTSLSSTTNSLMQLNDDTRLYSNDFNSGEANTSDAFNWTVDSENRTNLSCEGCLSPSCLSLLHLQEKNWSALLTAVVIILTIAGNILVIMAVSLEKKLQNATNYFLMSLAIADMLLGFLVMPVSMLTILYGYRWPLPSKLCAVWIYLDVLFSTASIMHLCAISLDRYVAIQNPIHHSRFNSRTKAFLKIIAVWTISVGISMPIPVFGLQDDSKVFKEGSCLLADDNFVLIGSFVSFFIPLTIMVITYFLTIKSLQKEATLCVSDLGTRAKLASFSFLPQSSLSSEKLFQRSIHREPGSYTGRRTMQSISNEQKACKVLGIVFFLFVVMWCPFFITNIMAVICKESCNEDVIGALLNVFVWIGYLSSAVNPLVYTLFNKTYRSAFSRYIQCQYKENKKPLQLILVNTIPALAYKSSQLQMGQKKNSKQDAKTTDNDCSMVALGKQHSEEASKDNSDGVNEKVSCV

[4] = target: cGMP-inhibited 3',5'-cyclic phosphodiesterase 3A (Homo sapiens, UniProt Q14432); assay type: functional
Sequence of cGMP-inhibited 3',5'-cyclic phosphodiesterase 3A (Q14432 whole entry): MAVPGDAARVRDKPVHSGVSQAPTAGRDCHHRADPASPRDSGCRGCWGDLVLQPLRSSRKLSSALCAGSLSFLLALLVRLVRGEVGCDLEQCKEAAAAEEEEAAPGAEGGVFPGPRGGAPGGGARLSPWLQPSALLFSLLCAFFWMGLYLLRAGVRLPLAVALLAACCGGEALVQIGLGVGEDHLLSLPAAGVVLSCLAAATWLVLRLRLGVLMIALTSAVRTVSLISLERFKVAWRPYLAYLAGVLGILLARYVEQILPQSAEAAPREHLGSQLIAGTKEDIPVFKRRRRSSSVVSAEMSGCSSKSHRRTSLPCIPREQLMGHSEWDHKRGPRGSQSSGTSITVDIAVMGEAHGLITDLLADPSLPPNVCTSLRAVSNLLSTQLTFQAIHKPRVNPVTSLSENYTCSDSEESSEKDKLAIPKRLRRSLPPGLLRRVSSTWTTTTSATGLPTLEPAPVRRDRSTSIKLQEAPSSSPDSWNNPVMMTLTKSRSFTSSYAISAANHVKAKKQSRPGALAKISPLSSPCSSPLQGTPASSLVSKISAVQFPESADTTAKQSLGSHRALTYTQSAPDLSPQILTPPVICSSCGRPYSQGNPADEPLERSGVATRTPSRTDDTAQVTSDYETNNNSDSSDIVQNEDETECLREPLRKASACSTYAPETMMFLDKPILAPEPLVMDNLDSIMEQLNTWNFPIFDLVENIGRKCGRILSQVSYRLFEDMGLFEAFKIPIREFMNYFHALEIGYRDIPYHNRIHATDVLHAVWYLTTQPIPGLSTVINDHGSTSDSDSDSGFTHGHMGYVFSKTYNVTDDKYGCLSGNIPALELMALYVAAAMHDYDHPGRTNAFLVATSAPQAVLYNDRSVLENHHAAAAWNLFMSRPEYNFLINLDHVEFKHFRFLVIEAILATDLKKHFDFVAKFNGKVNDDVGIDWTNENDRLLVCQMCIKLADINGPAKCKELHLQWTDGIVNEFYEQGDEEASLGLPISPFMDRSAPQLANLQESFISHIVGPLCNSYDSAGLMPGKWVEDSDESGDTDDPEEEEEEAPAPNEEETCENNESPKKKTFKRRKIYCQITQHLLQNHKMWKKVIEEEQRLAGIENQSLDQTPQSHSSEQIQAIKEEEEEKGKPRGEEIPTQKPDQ

[5] = target: T2, 5-hydroxytryptamine receptor 1A (Homo sapiens, UniProt P08908); assay type: functional, cell-based
T2 sequence (P08908 whole entry): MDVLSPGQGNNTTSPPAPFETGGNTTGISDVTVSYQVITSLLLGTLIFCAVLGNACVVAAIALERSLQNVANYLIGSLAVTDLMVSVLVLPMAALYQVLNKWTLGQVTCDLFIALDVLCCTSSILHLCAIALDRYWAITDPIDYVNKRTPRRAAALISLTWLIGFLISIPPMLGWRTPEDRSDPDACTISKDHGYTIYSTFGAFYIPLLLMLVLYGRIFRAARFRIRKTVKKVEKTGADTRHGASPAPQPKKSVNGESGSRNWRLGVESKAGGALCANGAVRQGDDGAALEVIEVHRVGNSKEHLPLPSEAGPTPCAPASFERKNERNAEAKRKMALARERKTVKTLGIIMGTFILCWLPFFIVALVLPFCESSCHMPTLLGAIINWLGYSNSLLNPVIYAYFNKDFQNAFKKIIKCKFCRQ

[6] = target: T3, Alpha-1A adrenergic receptor (Homo sapiens, UniProt P35348); assay type: functional, cell-based
T3 sequence (P35348 whole entry): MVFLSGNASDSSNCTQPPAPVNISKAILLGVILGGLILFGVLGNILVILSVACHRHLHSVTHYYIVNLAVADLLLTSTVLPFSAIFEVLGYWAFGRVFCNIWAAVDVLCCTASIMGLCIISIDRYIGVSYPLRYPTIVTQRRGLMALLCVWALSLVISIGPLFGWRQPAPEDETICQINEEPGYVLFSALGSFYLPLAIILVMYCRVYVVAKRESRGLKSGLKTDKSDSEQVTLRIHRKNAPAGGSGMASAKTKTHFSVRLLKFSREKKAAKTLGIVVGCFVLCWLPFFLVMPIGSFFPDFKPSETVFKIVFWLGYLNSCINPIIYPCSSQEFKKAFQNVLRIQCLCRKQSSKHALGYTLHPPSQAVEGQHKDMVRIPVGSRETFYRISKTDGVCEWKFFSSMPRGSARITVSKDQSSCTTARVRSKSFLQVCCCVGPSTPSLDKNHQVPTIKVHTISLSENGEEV

[7] = target: T4, Adenosine receptor A3 (Homo sapiens, UniProt P0DMS8)
T4 sequence (P0DMS8 whole entry): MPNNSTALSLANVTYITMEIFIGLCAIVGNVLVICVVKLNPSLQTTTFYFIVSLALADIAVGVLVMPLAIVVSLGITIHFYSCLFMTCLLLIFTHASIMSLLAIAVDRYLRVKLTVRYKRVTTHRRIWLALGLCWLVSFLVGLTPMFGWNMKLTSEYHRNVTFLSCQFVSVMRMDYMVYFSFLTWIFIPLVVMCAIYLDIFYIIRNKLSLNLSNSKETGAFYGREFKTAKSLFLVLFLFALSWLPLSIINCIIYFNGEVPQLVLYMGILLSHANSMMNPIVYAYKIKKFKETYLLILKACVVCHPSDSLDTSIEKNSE

[8] = target: T5, Type-1 angiotensin II receptor (Homo sapiens, UniProt P30556)
T5 sequence (P30556 whole entry): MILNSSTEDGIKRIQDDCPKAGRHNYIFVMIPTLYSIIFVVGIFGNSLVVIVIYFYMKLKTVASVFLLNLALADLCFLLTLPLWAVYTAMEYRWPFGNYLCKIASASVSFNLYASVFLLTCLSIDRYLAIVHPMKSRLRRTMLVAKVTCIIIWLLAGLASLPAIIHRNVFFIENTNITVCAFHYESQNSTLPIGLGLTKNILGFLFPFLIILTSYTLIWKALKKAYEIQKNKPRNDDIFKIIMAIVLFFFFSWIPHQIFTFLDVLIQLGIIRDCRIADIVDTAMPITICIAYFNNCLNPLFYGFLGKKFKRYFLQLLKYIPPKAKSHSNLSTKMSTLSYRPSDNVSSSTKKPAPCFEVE

[9] = target: Beta-1 adrenergic receptor (Homo sapiens, UniProt P08588); assay type: functional
Sequence of Beta-1 adrenergic receptor (P08588 whole entry): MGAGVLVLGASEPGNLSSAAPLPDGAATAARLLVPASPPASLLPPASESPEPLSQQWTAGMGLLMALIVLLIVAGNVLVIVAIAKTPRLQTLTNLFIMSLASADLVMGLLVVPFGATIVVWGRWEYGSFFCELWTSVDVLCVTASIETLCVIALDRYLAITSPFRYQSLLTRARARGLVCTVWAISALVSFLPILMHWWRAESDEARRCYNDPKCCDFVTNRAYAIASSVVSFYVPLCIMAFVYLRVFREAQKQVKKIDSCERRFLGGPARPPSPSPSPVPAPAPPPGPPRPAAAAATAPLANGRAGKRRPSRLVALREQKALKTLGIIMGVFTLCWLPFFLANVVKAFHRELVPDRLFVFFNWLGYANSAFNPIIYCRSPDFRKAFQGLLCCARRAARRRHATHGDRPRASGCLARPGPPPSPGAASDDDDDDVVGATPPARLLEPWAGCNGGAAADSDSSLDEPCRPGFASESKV

[10] = target: Sodium-dependent noradrenaline transporter (Homo sapiens, UniProt P23975)
Sequence of Sodium-dependent noradrenaline transporter (P23975 whole entry): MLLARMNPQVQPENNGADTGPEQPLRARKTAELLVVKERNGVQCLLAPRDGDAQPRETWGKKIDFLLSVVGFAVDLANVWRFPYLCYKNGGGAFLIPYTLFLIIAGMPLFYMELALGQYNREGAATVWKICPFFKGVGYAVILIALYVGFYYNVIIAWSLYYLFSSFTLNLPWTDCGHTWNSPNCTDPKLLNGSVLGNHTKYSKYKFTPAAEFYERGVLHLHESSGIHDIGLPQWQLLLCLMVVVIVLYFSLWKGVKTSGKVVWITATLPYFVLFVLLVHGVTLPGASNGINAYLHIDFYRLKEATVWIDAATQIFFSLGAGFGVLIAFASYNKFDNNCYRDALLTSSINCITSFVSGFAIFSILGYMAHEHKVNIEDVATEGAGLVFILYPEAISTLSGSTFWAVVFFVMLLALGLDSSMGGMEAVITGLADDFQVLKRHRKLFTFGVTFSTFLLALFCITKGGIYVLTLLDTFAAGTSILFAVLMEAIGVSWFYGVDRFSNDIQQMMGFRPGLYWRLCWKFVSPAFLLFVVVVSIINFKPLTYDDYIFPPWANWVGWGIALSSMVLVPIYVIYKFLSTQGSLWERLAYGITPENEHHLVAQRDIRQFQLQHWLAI

[11] = target: Glutamate receptor ionotropic, NMDA 1 (Rattus norvegicus, UniProt P35439)
Also: assay procedure not described here.

Row | SMILES | AC50 [1] [µM] | AC50 [2] [µM] | AC50 [3] [µM] | AC50 [4] [µM] | AC50 [5] [µM] | AC50 [6] [µM] | AC50 [7] [µM] | AC50 [8] [µM] | AC50 [9] [µM] | AC50 [10] [µM] | AC50 [11] [µM]
1 | N#Cc1ccccc1-c1cc(-c2ccccn2)cn(-c2ccccc2)c1=O | > 30 | > 30 | > 30 | > 30 | > 30 | > 30 | > 30 | > 30 | > 30 | > 30 | > 30
2 | N=C(N)NCCCCCCC(=O)NC(O)C(=O)NCCCCNCCCN (centres undefined) | > 30 | > 30 | > 30 | > 30 | > 30 | > 30 | > 30 | > 30 | > 30 | > 30 | > 30
3 | C=C[C@@]1(C)CC(=O)[C@]2(O)[C@@]3(C)[C@@H](O)CCC(C)(C)[C@@H]3[C@H](OC(=O)CCN(C)C)[C@H](OC(C)=O)[C@@]2(C)O1 | > 30 | > 30 | > 30 | > 30 | > 30 | 8.3 | > 30 | > 30 | > 30 | > 30 | > 30
4 | CC(=O)OCC(=O)[C@@]1(O)CC[C@H]2[C@@H]3CCC4=CC(=O)CC[C@]4(C)C3=CC[C@@]21C [ANECORTAVE ACETATE] | > 30 | > 10 | > 10 | > 30 | > 10 | > 30 | > 10 | > 10 | > 10 | > 10 | > 10
5 | O=C(CCCN1CCC(n2c(O)nc3ccccc32)CC1)c1ccc(F)cc1 [BENPERIDOL] | > 30 | > 30 | > 30 | > 30 | > 30 | > 30 | > 30 | > 30 | 8.5 | 12 | > 30
6 | CCN(CC)C(=O)C1CN2CCc3cc(OC)c(OC)cc3C2CC1OC(C)=O (centres undefined) [BENZQUINAMIDE] | > 30 | > 30 | > 30 | > 30 | > 30 | > 30 | > 30 | > 30 | > 30 | > 30 | > 30
7 | CCC(=O)OCC(=O)[C@@]1(OC(=O)CC)[C@@H](C)C[C@H]2[C@@H]3CCC4=CC(=O)C=C[C@]4(C)[C@@]3(F)[C@@H](O)C[C@@]21C [BETAMETHASONE DIPROPIONATE] | 0.3 | > 30 | > 30 | > 30 | > 30 | > 30 | 24 | > 30 | > 30 | > 30 | > 30
8 | C=CC1=C(C(=O)O)N2C(=O)[C@@H](NC(=O)/C(=N\OCC(=O)O)c3csc(N)n3)[C@H]2SC1 [CEFIXIME] | > 30 | > 30 | > 30 | > 30 | > 30 | > 30 | > 30 | > 30 | > 30 | > 30 | –
9 | O=C(O)c1ccccc1OP(=O)(O)O [FOSFOSAL] | > 30 | > 30 | > 30 | 9.8 | > 30 | > 30 | > 30 | > 30 | > 30 | > 30 | –
10 | CCCC[C@H](C)C[C@H](O)/C=C/[C@H]1[C@H](O)CC(=O)[C@@H]1CCCC/C=C/C(=O)O [LIMAPROST] | > 30 | > 30 | > 30 | > 30 | – | > 30 | > 30 | > 30 | > 30 | > 30 | > 30
11 | CC(=O)O[C@H]1C[C@@H]2CC[C@@H]3[C@H](CC[C@@]4(C)[C@H]3C[C@H]([N+]3(C)CCCCC3)[C@@H]4OC(C)=O)[C@@]2(C)C[C@@H]1[N+]1(C)CCCCC1 [PANCURONIUM] | > 10 | > 10 | > 10 | > 30 | > 10 | – | > 10 | > 10 | > 10 | > 10 | > 10
12 | CC1(C)C(C=C(Cl)Cl)C1C(=O)OCc1cccc(Oc2ccccc2)c1 (centres undefined) [PERMETHRIN] | > 30 | > 10 | > 10 | > 30 | > 10 | – | > 10 | > 10 | > 10 | > 10 | > 10
13 | CC[N+]1(C)CCCC(OC(=O)C(O)(c2ccccc2)c2ccccc2)C1 (centres undefined) [PIPENZOLATE] | > 30 | > 30 | > 30 | > 30 | > 30 | – | > 30 | > 30 | > 30 | > 30 | > 30
14 | CN1CCN(c2c(F)cc3c(=O)c(C(=O)O)cn4c3c2SCC4)CC1 [RUFLOXACIN] | > 30 | > 30 | > 30 | > 30 | > 30 | > 30 | > 30 | > 30 | > 30 | – | > 30
15 | COc1cc2nccc(Oc3ccc(NC(=O)Nc4cc(C)on4)c(Cl)c3)c2cc1OC [TIVOZANIB] | > 3 | > 3 | > 30 | 16 | – | > 30 | > 3 | – | – | > 3 | –
